The values below are quoted from earlier work in publication PMC5209880, “Mobilization of hematopoietic stem cells with the novel CXCR4 antagonist POL6326 (balixafortide) in healthy volunteers—results of a dose escalation trial” (Journal of Translational Medicine, 2017).

In one data set the test system is CD34+ cells. The note with it: administered alone (without G-CSF) in healthy donors; cited from earlier work. The text has this: The ability of CXCR4 antagonists to rapidly dislodge stem cells from the marrow has been recognized for many years. Previously studied compounds were neither universally well tolerated nor very potent. The only currently approved CXCR4 antagonist plerixafor mobilized a median of 16 CD34+ cells per µL when administered alone (without G-CSF) in healthy donors, which is barely sufficient to generate a normal-sized graft in two apheresis sessions. || The comparator agent in our study was G-CSF given in split doses as is routine practice in our center; the rationale is twofold: more efficient mobilization and potentially better tolerability. […] Thus the advantage in efficiency of single-dose G-CSF vs. balixafortide at the doses tested here would be les ...

The subject of data set [1] is patients receiving a plerixafor-mobilized graft. The note with it: recipients of a plerixafor-mobilized graft; cited from earlier work.

In the case of `c1cc(CN2CCCNCCNCCCNCC2)ccc1CN1CCCNCCNCCCNCC1` [plerixafor, reference compound], the “Median CD34+ cells mobilized” value in the data set with CD34+ cells is listed as 16 CD34+ cells per µL. Also, the “Patients who developed acute GvHD 3° or 4°” value in data set [1] is recorded as 1/20.
